We go through 41 molecules from patent US8815875B2 (Merck Sharp & Dohme Corp., priority 2008, dated 2014).

The assay has as its target FABP4 (Homo sapiens, UniProt P15090). In words: TdF (Temperature Dependence Fluorescence) assay, thermal shift, FABP4. The class given is binding. In outline: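 Binding measured as ΔTm versus protein alone; binding constants derived by nonlinear fitting with ΔHL set to −7 kcal/mol and ΔCpL to zero.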

A value given as a limit tells only on which side of the number the result lay.

Chain of FABP4 (P15090 whole entry, species assumed): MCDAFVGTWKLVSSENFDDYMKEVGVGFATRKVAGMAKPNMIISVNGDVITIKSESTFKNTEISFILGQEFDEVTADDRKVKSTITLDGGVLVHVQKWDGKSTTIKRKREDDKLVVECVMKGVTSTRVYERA

For `O=C(NC1(CO)CCCCC1)c1c(Cl)cccc1OCc1cc(=O)n2nc(-c3ccccc3)nc2[nH]1` [47-14], the “FABP4 TdF Kd” value is “B (0.5 ≦ B < 0.001 μM)”.
With `O=C(NCC1(O)CCCC1)c1c(Cl)cccc1OCc1cc(=O)n2nc(-c3ccccc3)nc2[nH]1` [47-15, 2-chloro-N-((1-hydroxycyclopentyl)methyl)-6-((7-oxo-2-phenyl-4,7-dihydro-[1,2,4]triazolo[1,5-a]pyrimidin-5-yl)methoxy)benzamide], the “FABP4 TdF Kd” value is “B (0.5 ≦ B < 0.001 μM)”.
Still for that read-out and setting: next, `O=C(NC1(CO)CCCC1)c1c(Cl)cccc1OCc1cc(=O)n2nc(-c3ccccc3)nc2[nH]1` [47-17, 2-chloro-N-(1-(hydroxymethyl)cyclopentyl)-6-((7-oxo-2-phenyl-4,7-dihydro-[1,2,4]triazolo[1,5-a]pyrimidin-5-yl)methoxy)benzamide]: “B (0.5 ≦ B < 0.001 μM)”; `O=C(NCC1(CO)CC1)c1c(Cl)cccc1OCc1cc(=O)n2nc(-c3ccccc3)nc2[nH]1` [47-18, 2-chloro-N-((1-(hydroxymethyl)cyclopropyl)methyl)-6-((7-oxo-2-phenyl-4,7-dihydro-[1,2,4]triazolo[1,5-a]pyrimidin-5-yl)methoxy)benzamide]: “B (0.5 ≦ B < 0.001 μM)”.
With `COCC1(CNC(=O)c2c(Cl)cccc2OCc2cc(=O)n3nc(-c4ccccc4)nc3[nH]2)CC1` [47-19, 2-chloro-N-((1-(methoxymethyl)cyclopropyl)methyl)-6-((7-oxo-2-phenyl-4,7-dihydro-[1,2,4]triazolo[1,5-a]pyrimidin-5-yl)methoxy)benzamide], the “FABP4 TdF Kd” value is “B (0.5 ≦ B < 0.001 μM)”.
Consider `O=C(NCC1(CO)CCCC1)c1c(Cl)cccc1OCc1cc(=O)n2nc(-c3ccccc3)nc2[nH]1` [47-20, 2-chloro-N-((1-(hydroxymethyl)cyclopentyl)methyl)-6-((7-oxo-2-phenyl-4,7-dihydro-[1,2,4]triazolo[1,5-a]pyrimidin-5-yl)methoxy)benzamide], for which the “FABP4 TdF Kd” value is given as “B (0.5 ≦ B < 0.001 μM)”.
In the case of `O=C(NC1(CO)CCOCC1)c1c(Cl)cccc1OCc1cc(=O)n2nc(-c3ccccc3)nc2[nH]1` [47-21, 2-chloro-N-(4-(hydroxymethyl)tetrahydro-2H-pyran-4-yl)-6-((7-oxo-2-phenyl-4,7-dihydro-[1,2,4]triazolo[1,5-a]pyrimidin-5-yl)methoxy)benzamide], the “FABP4 TdF Kd” value is “B (0.5 ≦ B < 0.001 μM)”.
As for `CC(C)(CNC(=O)c1c(Cl)cccc1OCc1cc(=O)n2nc(-c3ccccc3)nc2[nH]1)N1CCOCC1` [47-22, 2-chloro-N-(2-methyl-2-morpholinopropyl)-6-((7-oxo-2-phenyl-4,7-dihydro-[1,2,4]triazolo[1,5-a]pyrimidin-5-yl)methoxy)benzamide], the “FABP4 TdF Kd” value is listed as “B (0.5 ≦ B < 0.001 μM)”.
Turning to `COc1ccccc1C1(CNC(=O)c2c(Cl)cccc2OCc2cc(=O)n3nc(-c4ccccc4)nc3[nH]2)CCC1` [47-23], the “FABP4 TdF Kd” value was “B (0.5 ≦ B < 0.001 μM)”.
Take `O=C(NCC1(c2ccc(Cl)cc2)CCC1)c1c(Cl)cccc1OCc1cc(=O)n2nc(-c3ccccc3)nc2[nH]1` [47-24, 2-chloro-N-((1-(4-chlorophenyl)cyclobutyl)methyl)-6-((7-oxo-2-phenyl-4,7-dihydro-[1,2,4]triazolo[1,5-a]pyrimidin-5-yl)methoxy)benzamide]: the Kd was at most 1 nM.
Turning to `O=C(NCC1(O)CCOCC1)c1c(Cl)cccc1OCc1cc(=O)n2nc(-c3ccccc3)nc2[nH]1` [47-25, 2-chloro-N-((4-hydroxytetrahydro-2H-pyran-4-yl)methyl)-6-((7-oxo-2-phenyl-4,7-dihydro-[1,2,4]triazolo[1,5-a]pyrimidin-5-yl)methoxy)benzamide], the “FABP4 TdF Kd” value was “B (0.5 ≦ B < 0.001 μM)”.
On to `O=C(NCC1(CO)CCOCC1)c1c(Cl)cccc1OCc1cc(=O)n2nc(-c3ccccc3)nc2[nH]1` [47-26, 2-chloro-N-((4-(hydroxymethyl)tetrahydro-2H-pyran-4-yl)methyl)-6-((7-oxo-2-phenyl-4,7-dihydro-[1,2,4]triazolo[1,5-a]pyrimidin-5-yl)methoxy)benzamide], for which the “FABP4 TdF Kd” value is reported as “B (0.5 ≦ B < 0.001 μM)”.
With `CC(C)(C)c1cc(NC(=O)c2c(Cl)cccc2OCc2cc(=O)n3nc(-c4ccccc4)nc3[nH]2)n(-c2ccc(Cl)cc2)n1` [47-27, N-(3-tert-butyl-1-(4-chlorophenyl)-1H-pyrazol-5-yl)-2-chloro-6-((7-oxo-2-phenyl-4,7-dihydro-[1,2,4]triazolo[1,5-a]pyrimidin-5-yl)methoxy)benzamide], the Kd is at most 1 nM.
With `CC1(CNC(=O)c2c(Cl)cccc2OCc2cc(=O)n3nc(-c4ccccc4)nc3[nH]2)COC1` [47-28, 2-chloro-N-((3-methyloxetan-3-yl)methyl)-6-((7-oxo-2-phenyl-4,7-dihydro-[1,2,4]triazolo[1,5-a]pyrimidin-5-yl)methoxy)benzamide], the dissociation constant Kd is at most 1 nM.
On the same count and under the same terms, next, `O=C(NCC1(c2ccccc2Cl)CC1)c1c(Cl)cccc1OCc1cc(=O)n2nc(-c3ccccc3)nc2[nH]1` [47-29, 2-chloro-N-((1-(2-chlorophenyl)cyclopropyl)methyl)-6-((7-oxo-2-phenyl-4,7-dihydro-[1,2,4]triazolo[1,5-a]pyrimidin-5-yl)methoxy)benzamide]: at most 1 nM.
For `O=C(NCC1(CO)CCC1)c1c(Cl)cccc1OCc1cc(=O)n2nc(-c3ccccc3)nc2[nH]1` [47-30, 2-chloro-N-((1-(hydroxymethyl)cyclobutyl)methyl)-6-((7-oxo-2-phenyl-4,7-dihydro-[1,2,4]triazolo[1,5-a]pyrimidin-5-yl)methoxy)benzamide], the “FABP4 TdF Kd” value was “B (0.5 ≦ B < 0.001 μM)”.
The same measure, in the same setting: next, `O=C(Nc1cc(C2CC2)n[nH]1)c1c(Cl)cccc1OCc1cc(=O)n2nc(-c3ccccc3)nc2[nH]1` [47-32, 2-chloro-N-(3-cyclopropyl-1H-pyrazol-5-yl)-6-((7-oxo-2-phenyl-4,7-dihydro-[1,2,4]triazolo[1,5-a]pyrimidin-5-yl)methoxy)benzamide]: “B (0.5 ≦ B < 0.001 μM)”; `O=C(NCC1(CO)COC1)c1c(Cl)cccc1OCc1cc(=O)n2nc(-c3ccccc3)nc2[nH]1` [47-34, 2-chloro-N-((3-(hydroxymethyl)oxetan-3-yl)methyl)-6-((7-oxo-2-phenyl-4,7-dihydro-[1,2,4]triazolo[1,5-a]pyrimidin-5-yl)methoxy)benzamide]: “B (0.5 ≦ B < 0.001 μM)”; `O=C(NC1(CO)CCC1)c1c(Cl)cccc1OCc1cc(=O)n2nc(-c3ccccc3)nc2[nH]1` [47-35]: “B (0.5 ≦ B < 0.001 μM)”.
For `CC(NC(=O)c1c(Cl)cccc1OCc1cc(=O)n2nc(-c3ccccc3)nc2[nH]1)C1CCC1` (centres unmarked) [47-36], the “FABP4 TdF Kd” value is given as “B (0.5 ≦ B < 0.001 μM)”.
As for `O=C(NCC1(c2cccc(Cl)c2)CCC1)c1c(Cl)cccc1OCc1cc(=O)n2nc(-c3ccccc3)nc2[nH]1` [47-37, 2-chloro-N-((1-(3-chlorophenyl)cyclobutyl)methyl)-6-((7-oxo-2-phenyl-4,7-dihydro-[1,2,4]triazolo[1,5-a]pyrimidin-5-yl)methoxy)benzamide], the Kd was at most 1 nM.
`COc1cccc(C2(CNC(=O)c3c(Cl)cccc3OCc3cc(=O)n4nc(-c5ccccc5)nc4[nH]3)CCC2)c1` [47-38, 2-chloro-N-((1-(3-methoxyphenyl)cyclobutyl)methyl)-6-((7-oxo-2-phenyl-4,7-dihydro-[1,2,4]triazolo[1,5-a]pyrimidin-5-yl)methoxy)benzamide]: the Kd was at most 1 nM.
Regarding `Cn1ccc(NC(=O)c2c(Cl)cccc2OCc2cc(=O)n3nc(-c4ccccc4)nc3[nH]2)n1` [47-40], the “FABP4 TdF Kd” value was “B (0.5 ≦ B < 0.001 μM)”.
For `CN(CC1CC1)C(=O)c1c(Cl)cccc1OCc1cc(=O)n2nc(-c3ccccc3)nc2[nH]1` [47-46], the Kd was above 500 nM.
With `CC1(NC(=O)c2c(Cl)cccc2OCc2cc(=O)n3nc(-c4ccccc4)nc3[nH]2)COC1` [47-47], the “FABP4 TdF Kd” value is on record as “B (0.5 ≦ B < 0.001 μM)”.
For `COc1ccccc1C1(CNC(=O)c2c(Cl)cccc2OCc2cc(=O)n3nc(-c4ccccc4)nc3[nH]2)CC1` [47-48], the “FABP4 TdF Kd” value was “B (0.5 ≦ B < 0.001 μM)”.
For `Nc1cc(C2CC2)n(C(=O)c2c(Cl)cccc2OCc2cc(=O)n3nc(-c4ccccc4)nc3[nH]2)n1` [47-49], the “FABP4 TdF Kd” value is “B (0.5 ≦ B < 0.001 μM)”.
With `Nc1cc(C2CC2)nn1C(=O)c1c(Cl)cccc1OCc1cc(=O)n2nc(-c3ccccc3)nc2[nH]1` [47-50], the Kd is at most 1 nM.
In the case of `Cc1cc(N)n(C(=O)c2c(Cl)cccc2OCc2cc(=O)n3nc(-c4ccccc4)nc3[nH]2)n1` [47-51], the Kd was at most 1 nM.
`Cc1cc(N)nn1C(=O)c1c(Cl)cccc1OCc1cc(=O)n2nc(-c3ccccc3)nc2[nH]1` [47-52]: the “FABP4 TdF Kd” value is “B (0.5 ≦ B < 0.001 μM)”.
Consider `O=C(O)c1ccccc1OCc1cc(=O)n2nc(-c3ccccc3)nc2[nH]1` [47-53], for which the Kd was above 500 nM.
For `Cn1nccc1NC(=O)c1ccccc1OCc1cc(=O)n2nc(-c3ccccc3)nc2[nH]1` [47-54], the “FABP4 TdF Kd” value was “B (0.5 ≦ B < 0.001 μM)”.
As for `O=C(NCC1CC1)c1ccccc1OCc1cc(=O)n2nc(-c3ccccc3)nc2[nH]1` [47-55], the “FABP4 TdF Kd” value is given as “B (0.5 ≦ B < 0.001 μM)”.
For the molecule `O=C(NCC1CCC1)c1ccccc1OCc1cc(=O)n2nc(-c3ccccc3)nc2[nH]1` [47-56], the “FABP4 TdF Kd” value is “B (0.5 ≦ B < 0.001 μM)”.
Consider `Cn1ccc(NC(=O)c2ccccc2OCc2cc(=O)n3nc(-c4ccccc4)nc3[nH]2)n1` [47-57], for which the dissociation constant Kd was above 500 nM.
Consider `O=C(NCC1(CO)CCC1)c1ccccc1OCc1cc(=O)n2nc(-c3ccccc3)nc2[nH]1` [47-58], for which the “FABP4 TdF Kd” value was “B (0.5 ≦ B < 0.001 μM)”.
In the case of `O=C(NCC1(CO)CCCC1)c1ccccc1OCc1cc(=O)n2nc(-c3ccccc3)nc2[nH]1` [47-59], the “FABP4 TdF Kd” value is “B (0.5 ≦ B < 0.001 μM)”.
Same read-out and setting: next, `O=C(NCC1(c2ccccc2Cl)CC1)c1ccccc1OCc1cc(=O)n2nc(-c3ccccc3)nc2[nH]1` [47-60]: “B (0.5 ≦ B < 0.001 μM)”; `O=C(NCCC1CC1)c1ccccc1OCc1cc(=O)n2nc(-c3ccccc3)nc2[nH]1` [47-61]: “B (0.5 ≦ B < 0.001 μM)”; `CN(C(=O)c1ccccc1OCc1cc(=O)n2nc(-c3ccccc3)nc2[nH]1)C1CCCCC1` [47-62]: “B (0.5 ≦ B < 0.001 μM)”.
As to `O=C(NC1CCCCC1)c1ccccc1OCc1cc(=O)n2nc(-c3ccccc3)nc2[nH]1` [47-63], the “FABP4 TdF Kd” value is listed as “B (0.5 ≦ B < 0.001 μM)”.
